The record followed here is PubChem BioAssay (NCI).

Test systems include T-47D breast; KM12 colon; MDA-MB-231 breast; UACC-257 melanoma; SF-268 CNS; SN12C renal; HL-60(TB) leukemia; HT29 colon; MOLT-4 leukemia; NCI-H226 lung.
Assay in all cases: DTP human tumour cell line panel, 48 h

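Five compound concentrations were applied to cells in 96-well plates for 48 hours; endpoints were derived by simple linear interpolation of the resulting dose-response curve. Here, GI50 denotes the concentration required for 50% inhibition of growth. TGI marks complete inhibition of growth.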

For the compound `CC(C)[C@@H](C(=O)O[C@@H]1/C=C/C(=O)O[C@@H](C)CCC/C=C/[C@@H]2C[C@H](O)C[C@H]21)N(C)C`, the GI50 was 30 µM with T-47D breast; 2.91 µM in the test with KM12 colon; 20.2 µM in the test with MDA-MB-231 breast; 20.8 µM in the test with UACC-257 melanoma; 7.33 µM in the test with SF-268 CNS; 28.4 µM in the test on SN12C renal. In addition, the GI50 with HL-60(TB) leukemia was 13.8 µM; in the test on HT29 colon, 5.16 µM; in the test on MOLT-4 leukemia, 15.9 µM; in the test on NCI-H226 lung it was 9.21 µM. Besides, the TGI in the test on T-47D breast is over 100 µM; with KM12 colon, 10.2 µM; in the test on MDA-MB-231 breast it was 63.2 µM; with UACC-257 melanoma, over 81.9 µM; with SF-268 CNS, over 45 µM; with SN12C renal it was over 62.1 µM. Also, the TGI in the test with HL-60(TB) leukemia worked out at 36 µM; with HT29 colon, 27.3 µM; in the test on MOLT-4 leukemia, 42.8 µM; in the test on NCI-H226 lung, 36.4 µM.

Turning to `CC(NNC(=S)N1CCN(c2ccccn2)CC1)c1nccc2ccccc12` (stereo not given), the TGI with T-47D breast is 16.9 µM; with KM12 colon, 19 µM; with MDA-MB-231 breast it was 16.8 µM; with UACC-257 melanoma, 12.9 µM; with SF-268 CNS, 14.5 µM; with SN12C renal it was 11.3 µM. Moreover, the TGI turned out to be 1.18 µM with HL-60(TB) leukemia, 19.1 µM with HT29 colon, 10.3 µM with MOLT-4 leukemia and 8.11 µM in the test on NCI-H226 lung.

In the case of `COc1ccc(C(=O)/C=C/c2ccc(OCc3cccc(C(F)(F)F)c3)c(OC)c2)cc1OC`, the GI50 in the test with T-47D breast was 32.1 µM; with KM12 colon, 55.3 µM; in the test on MDA-MB-231 breast it was 51.1 µM; with UACC-257 melanoma it was 613 µM; with SF-268 CNS it was 76.6 µM; in the test with SN12C renal it was 74.4 µM. For the same compound, the GI50 in the test on HL-60(TB) leukemia is 24.8 µM; in the test with HT29 colon, 52.1 µM; with MOLT-4 leukemia, 27.7 µM; with NCI-H226 lung it was 83.1 µM. Moreover, the TGI in the test with T-47D breast, in the test on KM12 colon, with MDA-MB-231 breast, with UACC-257 melanoma, in the test on SF-268 CNS and with SN12C renal was over 1000 µM throughout. In addition, the TGI with HL-60(TB) leukemia is 70.9 µM; with HT29 colon, over 1000 µM; with MOLT-4 leukemia, over 1000 µM; in the test on NCI-H226 lung, over 1000 µM.

For `CC(=O)C1=C(C)N(Cc2ccccc2)C2(O)C=CC(=O)C3=C(O)c4ccccc4C(=O)C312` (stereo not given), the GI50 in the test on T-47D breast is 2.71 µM; in the test on KM12 colon, 9.05 µM; in the test on MDA-MB-231 breast, 2.1 µM; with UACC-257 melanoma, 5.77 µM; with SF-268 CNS it was 10.4 µM; with SN12C renal it was 1.82 µM. In addition, the GI50 was over 100 µM with HL-60(TB) leukemia, 3.71 µM in the test on HT29 colon, 3.34 µM in the test on MOLT-4 leukemia and 8.12 µM with NCI-H226 lung. Besides, the TGI amounted to 7.97 µM with T-47D breast; 26 µM in the test with KM12 colon; 5.97 µM in the test on MDA-MB-231 breast; 30.5 µM in the test on UACC-257 melanoma; 29.1 µM in the test with SF-268 CNS; 3.6 µM in the test with SN12C renal. For the same compound, the TGI in the test on HL-60(TB) leukemia is over 100 µM; with HT29 colon, over 100 µM; in the test on MOLT-4 leukemia, over 100 µM; in the test with NCI-H226 lung it was 22.1 µM.

Regarding `CC1(C)OCC2OC(n3cnc4c(N)nc(Cl)nc43)C(OS(C)(=O)=O)C2O1` (stereo not given), the TGI with T-47D breast, in the test with KM12 colon, with MDA-MB-231 breast, in the test with UACC-257 melanoma, with SF-268 CNS and in the test with SN12C renal was over 100 µM in each case. The TGI in the test with HL-60(TB) leukemia, in the test on HT29 colon, with MOLT-4 leukemia and in the test with NCI-H226 lung was over 100 µM in each case.

Take `Cc1nnc(N/N=C/c2ccc([N+](=O)[O-])o2)[nH]c1=O`: the GI50 with T-47D breast is 1.07 µM; in the test with KM12 colon it was 0.575 µM; in the test with MDA-MB-231 breast it was 1.26 µM; with UACC-257 melanoma it was 0.0512 µM; in the test with SF-268 CNS it was 0.521 µM; in the test with SN12C renal it was 0.589 µM. In addition, the GI50 in the test on HL-60(TB) leukemia was 2.5 µM; in the test on HT29 colon, 3.63 µM; with MOLT-4 leukemia, 0.833 µM; with NCI-H226 lung, 1.46 µM. The TGI in the test on T-47D breast is 13.8 µM; with KM12 colon it was over 100 µM; in the test on MDA-MB-231 breast, over 24.5 µM; with UACC-257 melanoma, 5.26 µM; in the test on SF-268 CNS, over 57.9 µM; in the test with SN12C renal it was 22.5 µM. Besides, the TGI is over 100 µM in the test on HL-60(TB) leukemia, over 100 µM in the test on HT29 colon, over 100 µM with MOLT-4 leukemia and 25.4 µM in the test on NCI-H226 lung.

On to `CCC(=O)OCOc1ccc(/C=C2\CCC(CN(C)C)C2=O)cc1` (stereo not given), for which the TGI was 9 µM in the test with T-47D breast; 13 µM with KM12 colon; over 19.9 µM in the test on MDA-MB-231 breast; 10.6 µM in the test on UACC-257 melanoma; 22.5 µM in the test on SF-268 CNS; 7.56 µM in the test with SN12C renal. The TGI with HL-60(TB) leukemia is 5.51 µM; in the test on HT29 colon it was 25.7 µM; in the test with MOLT-4 leukemia, 8.07 µM; with NCI-H226 lung it was 31.8 µM.

Regarding `CCN1CCN(c2ccc(NC(=O)Nc3nc4ccc(-c5ccccc5OC)cc4s3)cc2)CC1`, the GI50 was 1.58 µM with T-47D breast; 1.75 µM in the test on KM12 colon; 1.72 µM with MDA-MB-231 breast; 2.11 µM with UACC-257 melanoma; 1.87 µM in the test with SF-268 CNS; 1.77 µM in the test on SN12C renal. Moreover, the GI50 was 1.73 µM in the test on HL-60(TB) leukemia, 1.31 µM in the test with HT29 colon, 1.8 µM in the test with MOLT-4 leukemia and 2.09 µM with NCI-H226 lung. For the same compound, the TGI in the test on T-47D breast was determined as 3.61 µM; in the test with KM12 colon, 3.33 µM; with MDA-MB-231 breast it was 3.28 µM; in the test on UACC-257 melanoma, 3.79 µM; with SF-268 CNS it was 3.63 µM; in the test on SN12C renal, 3.37 µM. Moreover, the TGI with HL-60(TB) leukemia amounted to 3.58 µM; in the test with HT29 colon, 2.7 µM; with MOLT-4 leukemia it was 3.67 µM; with NCI-H226 lung it was 4.52 µM.

Take `CC1=C(CCC(C)CO)O[C@H]2C[C@H]3[C@@H]4CC[C@H]5C[C@@H](O)CC[C@]5(C)[C@H]4CC(=O)[C@]3(C)[C@@H]12` (stereo not given in full): the TGI in the test on T-47D breast is 29.2 µM; in the test on KM12 colon, 30.4 µM; in the test with MDA-MB-231 breast it was 47.3 µM; in the test with UACC-257 melanoma, 36.6 µM; in the test with SF-268 CNS it was 57.6 µM; in the test with SN12C renal it was 53.2 µM. In addition, the TGI in the test on HL-60(TB) leukemia was 13.6 µM; in the test with HT29 colon it was 71.8 µM; with MOLT-4 leukemia it was 19.2 µM; in the test on NCI-H226 lung, over 82.2 µM.
